Reference: patent US8846653B2, “Delta-tocotrienol treatment and prevention of pancreatic cancer” (University of South Florida, priority 2006, dated 2014)

What was measured:
Assay type in all cases: cell-based, human
[1] = test system: SW1990 pancreatic cancer cells; test: MTS assay of SW1990 cultures, single 50 μM dose; details: SW1990, 50 μM
Description: SW1990 pancreatic cancer cells […] were cultured in complete DMEM media containing 10% fetal bovine serum (FBS) and 1% penicillin-streptomycin, and 1% L-glutamine. BxPc-3 pancreatic cancer cells were cultured in complete RPMI media containing 10% fetal bovine serum (FBS), and 1% penicillin-streptomycin, 1% HEPES buffer, 1% sodium pyruvate and 1% L-glutamine. HPDE6-C7 cells were cultured in serum-free keratinocyte SFM media. All cells were maintained at 37° C. in a humidified incubator with 5% CO2. The cells were treated with a single 50 μM dose of vehicle (ethanol extracted olive oil), T3 alpha (alpha tocotrienol), T3 beta (beta tocotrienol), T3 gamma (gamma tocotrienol), T3 delta (delta tocotrienol), T alpha (alpha tocopherol), T beta (beta tocopherol), TS (tocopherol succinate), GG (geranylgeraniol), SA (succinic acid). A control culture (i.e., only vehicle with no treatment) was grown alongside the treatments for comparison. Cell viability was measured using MTS assay at preselect times of 24, 48, or 72 hours after treatment.

BXPC3 cells = test: MTT assay of BXPC3 cultures, single 50 μM dose; parameters: MTT assay result, run 1 / MTT assay result, run 2 / MTT assay result, run 3 / MTT assay result, run 4 / MTT assay result, run 5 / MTT assay result, run 6 / MTT assay result, run 7 / MTT assay result, av (average) / MTT assay result, av-blank / MTT assay result, av: unit not given here; details: BXPC3, 50 μM; for MTT assay result, av-blank: average minus blank; for MTT assay result, av (average) / MTT assay result, av: average of 7 runs
Description: BXPC3 cells were cultured in complete […] media containing 10% fetal bovine serum (FBS) and 1% penicillin-streptomycin, and 1% L-glutamine. BxPc-3 pancreatic cancer cells were cultured in complete RPMI media containing 10% fetal bovine serum (FBS), and 1% penicillin-streptomycin, 1% HEPES buffer, 1% sodium pyruvate and 1% L-glutamine HPDE6-C7 cells were cultured in serum-free keratinocyte SFM media. All cells were maintained at 37° C. in a humidified incubator with 5% CO2. The cells were treated with a single 50 μM dose of vehicle (vehicle only, may be a solvent), T3 alpha (alpha tocotrienol), T3 beta (beta tocotrienol), T3 gamma (gamma tocotrienol), T3 delta (delta tocotrienol), T alpha (alpha tocopherol), T beta (beta tocopherol), TS (tocopherol succinate), GG (geranylgeraniol), SA (succinic acid). A control (no treatment) culture was grown alongside the treatments for comparison. Cell viability was measured using MTT assay at preselect times of 48 or 120 hours after treatment.

MiaPaCa-2 cells = test: MTT assay of MiaPaCa2 cultures, single 50 μM dose; parameters: rel amt (relative value set to the control): unit not given here; details: MiaPaCa2, 50 μM; for MTT assay result, av-blank: average minus blank; for MTT assay result, av: average of 7 runs
Description: MiaPaCa-2, BxPc-3, and HPDE6-C7 cells were cultured as described above, and treated with a single 50 μM dose of vehicle (ethanol extracted olive oil), T3 alpha (alpha tocotrienol), T3 beta (beta tocotrienol), T3 gamma (gamma tocotrienol), T3 delta (delta tocotrienol), T alpha (alpha tocopherol), T beta (beta tocopherol), TS (tocopherol succinate), GG (geranylgeraniol), SA (succinic acid). A control culture (vehicle only with no treatment) was grown alongside the treatments for comparison. Cell viability was measured using MTT assay at preselect times of 48 or 120 hours after treatment.

CC(C)=CCC/C(C)=C/CC/C(C)=C/CC/C(C)=C/CO [GG, geranylgeraniol]
rel amnt (relative value set to the control) ([1]; 24 hours): 92 | MTS assay result, run 1 ([1]; 24 hours): 0.158 | MTS assay result, run 2 ([1]; 24 hours): 0.133 | MTS assay result, run 3 ([1]; 24 hours): 0.133 | MTS assay result, run 4 ([1]; 24 hours): 0.137 | MTS assay result, run 5 ([1]; 24 hours): 0.131 | MTS assay result, run 6 ([1]; 24 hours): 0.14 | MTS assay result, run 7 ([1]; 24 hours): 0.132 | MTS assay result, run 8 ([1]; 24 hours): 0.121 | MTS assay result, run 9 ([1]; 24 hours): 0.136 | rel amnt (relative value set to the control) ([1]; 48 hours): 83 | MTS assay result, run 1 ([1]; 48 hours): 0.078 | MTS assay result, run 2 ([1]; 48 hours): 0.129 | MTS assay result, run 3 ([1]; 48 hours): 0.13 | MTS assay result, run 4 ([1]; 48 hours): 0.128 | MTS assay result, run 5 ([1]; 48 hours): 0.133 | MTS assay result, run 6 ([1]; 48 hours): 0.118 | MTS assay result, run 7 ([1]; 48 hours): 0.14 | MTS assay result, run 8 ([1]; 48 hours): 0.144 | MTS assay result, run 9 ([1]; 48 hours): 0.125 | rel amnt (relative value set to the control) ([1]; 72 hours): 158 | MTS assay result, run 1 ([1]; 72 hours): 0.784 | MTS assay result, run 2 ([1]; 72 hours): 0.713 | MTS assay result, run 3 ([1]; 72 hours): 0.76 | MTS assay result, run 4 ([1]; 72 hours): 0.734 | MTS assay result, run 5 ([1]; 72 hours): 0.682 | MTS assay result, run 6 ([1]; 72 hours): 0.665 | MTS assay result, run 7 ([1]; 72 hours): 0.65 | MTS assay result, run 8 ([1]; 72 hours): 0.627 | MTS assay result, run 9 ([1]; 72 hours): 0.702 | rel amt (relative value set to the control) (BXPC3 cells; 48 hours): 108 | MTT assay result, av-blank (BXPC3 cells; 48 hours): 0.246 | MTT assay result, av (average) (BXPC3 cells; 48 hours): 0.295 | MTT assay result, run 1 (BXPC3 cells; 48 hours): 0.308 | MTT assay result, run 2 (BXPC3 cells; 48 hours): 0.272 | MTT assay result, run 3 (BXPC3 cells; 48 hours): 0.299 | MTT assay result, run 4 (BXPC3 cells; 48 hours): 0.291 | MTT assay result, run 5 (BXPC3 cells; 48 hours): 0.299 | MTT assay result, run 6 (BXPC3 cells; 48 hours): 0.3 | MTT assay result, run 7 (BXPC3 cells; 48 hours): 0.294 | rel amt (relative value set to the control) (BXPC3 cells; 120 hours (5 days)): 106 | MTT assay result, av-blank (BXPC3 cells; 120 hours (5 days)): 0.610 | MTT assay result, av (BXPC3 cells; 120 hours (5 days)): 0.665 | MTT assay result, run 1 (BXPC3 cells; 120 hours (5 days)): 0.621 | MTT assay result, run 2 (BXPC3 cells; 120 hours (5 days)): 0.655 | MTT assay result, run 3 (BXPC3 cells; 120 hours (5 days)): 0.672 | MTT assay result, run 4 (BXPC3 cells; 120 hours (5 days)): 0.663 | MTT assay result, run 5 (BXPC3 cells; 120 hours (5 days)): 0.657 | MTT assay result, run 6 (BXPC3 cells; 120 hours (5 days)): 0.724 | MTT assay result, run 7 (BXPC3 cells; 120 hours (5 days)): 0.66 | rel amt (relative value set to the control) (MiaPaCa-2 cells; 48 hours): 92 | MTT assay result, av-blank (MiaPaCa-2 cells; 48 hours): 0.285 | MTT assay result, av (MiaPaCa-2 cells; 48 hours): 0.331 | MTT assay result, run 1 (MiaPaCa-2 cells; 48 hours): 0.329 | MTT assay result, run 2 (MiaPaCa-2 cells; 48 hours): 0.339 | MTT assay result, run 3 (MiaPaCa-2 cells; 48 hours): 0.321 | MTT assay result, run 4 (MiaPaCa-2 cells; 48 hours): 0.328 | MTT assay result, run 5 (MiaPaCa-2 cells; 48 hours): 0.342 | MTT assay result, run 6 (MiaPaCa-2 cells; 48 hours): 0.317 | MTT assay result, run 7 (MiaPaCa-2 cells; 48 hours): 0.341 | rel amt (relative value set to the control) (MiaPaCa-2 cells; 120 hours (5 days)): 93 | MTT assay result, av-blank (MiaPaCa-2 cells; 120 hours (5 days)): 1.679 | MTT assay result, av (MiaPaCa-2 cells; 120 hours (5 days)): 1.731 | MTT assay result, run 1 (MiaPaCa-2 cells; 120 hours (5 days)): 1.738 | MTT assay result, run 2 (MiaPaCa-2 cells; 120 hours (5 days)): 1.608 | MTT assay result, run 3 (MiaPaCa-2 cells; 120 hours (5 days)): 1.577 | MTT assay result, run 4 (MiaPaCa-2 cells; 120 hours (5 days)): 1.744 | MTT assay result, run 5 (MiaPaCa-2 cells; 120 hours (5 days)): 2.134 | MTT assay result, run 6 (MiaPaCa-2 cells; 120 hours (5 days)): 1.606 | MTT assay result, run 7 (MiaPaCa-2 cells; 120 hours (5 days)): 1.711

O=C(O)CCC(=O)O [SA, succinic acid]
rel amnt (relative value set to the control) ([1]; 24 hours): 109 | MTS assay result, run 1 ([1]; 24 hours): 0.146 | MTS assay result, run 2 ([1]; 24 hours): 0.154 | MTS assay result, run 3 ([1]; 24 hours): 0.15 | MTS assay result, run 4 ([1]; 24 hours): 0.152 | MTS assay result, run 5 ([1]; 24 hours): 0.172 | MTS assay result, run 6 ([1]; 24 hours): 0.165 | MTS assay result, run 7 ([1]; 24 hours): 0.179 | MTS assay result, run 8 ([1]; 24 hours): 0.165 | MTS assay result, run 9 ([1]; 24 hours): 0.160 | rel amnt (relative value set to the control) ([1]; 48 hours): 105 | MTS assay result, run 1 ([1]; 48 hours): 0.122 | MTS assay result, run 2 ([1]; 48 hours): 0.149 | MTS assay result, run 3 ([1]; 48 hours): 0.17 | MTS assay result, run 4 ([1]; 48 hours): 0.138 | MTS assay result, run 5 ([1]; 48 hours): 0.177 | MTS assay result, run 6 ([1]; 48 hours): 0.159 | MTS assay result, run 7 ([1]; 48 hours): 0.18 | MTS assay result, run 8 ([1]; 48 hours): 0.178 | MTS assay result, run 9 ([1]; 48 hours): 0.159 | rel amnt (relative value set to the control) ([1]; 72 hours): 113 | MTS assay result, run 1 ([1]; 72 hours): 0.596 | MTS assay result, run 2 ([1]; 72 hours): 0.547 | MTS assay result, run 3 ([1]; 72 hours): 0.57 | MTS assay result, run 4 ([1]; 72 hours): 0.515 | MTS assay result, run 5 ([1]; 72 hours): 0.544 | MTS assay result, run 6 ([1]; 72 hours): 0.44 | MTS assay result, run 7 ([1]; 72 hours): 0.4 | MTS assay result, run 8 ([1]; 72 hours): 0.427 | MTS assay result, run 9 ([1]; 72 hours): 0.504 | rel amt (relative value set to the control) (BXPC3 cells; 48 hours): 95 | MTT assay result, av-blank (BXPC3 cells; 48 hours): 0.218 | MTT assay result, av (average) (BXPC3 cells; 48 hours): 0.267 | MTT assay result, run 1 (BXPC3 cells; 48 hours): 0.273 | MTT assay result, run 2 (BXPC3 cells; 48 hours): 0.28 | MTT assay result, run 3 (BXPC3 cells; 48 hours): 0.271 | MTT assay result, run 4 (BXPC3 cells; 48 hours): 0.271 | MTT assay result, run 5 (BXPC3 cells; 48 hours): 0.254 | MTT assay result, run 6 (BXPC3 cells; 48 hours): 0.263 | MTT assay result, run 7 (BXPC3 cells; 48 hours): 0.255 | rel amt (relative value set to the control) (BXPC3 cells; 120 hours (5 days)): 74 | MTT assay result, av-blank (BXPC3 cells; 120 hours (5 days)): 0.428 | MTT assay result, av (BXPC3 cells; 120 hours (5 days)): 0.483 | MTT assay result, run 1 (BXPC3 cells; 120 hours (5 days)): 0.456 | MTT assay result, run 2 (BXPC3 cells; 120 hours (5 days)): 0.471 | MTT assay result, run 3 (BXPC3 cells; 120 hours (5 days)): 0.497 | MTT assay result, run 4 (BXPC3 cells; 120 hours (5 days)): 0.487 | MTT assay result, run 5 (BXPC3 cells; 120 hours (5 days)): 0.493 | MTT assay result, run 6 (BXPC3 cells; 120 hours (5 days)): 0.48 | MTT assay result, run 7 (BXPC3 cells; 120 hours (5 days)): 0.494 | rel amt (relative value set to the control) (MiaPaCa-2 cells; 48 hours): 74 | MTT assay result, av-blank (MiaPaCa-2 cells; 48 hours): 0.228 | MTT assay result, av (MiaPaCa-2 cells; 48 hours): 0.274 | MTT assay result, run 1 (MiaPaCa-2 cells; 48 hours): 0.276 | MTT assay result, run 2 (MiaPaCa-2 cells; 48 hours): 0.269 | MTT assay result, run 3 (MiaPaCa-2 cells; 48 hours): 0.268 | MTT assay result, run 4 (MiaPaCa-2 cells; 48 hours): 0.276 | MTT assay result, run 5 (MiaPaCa-2 cells; 48 hours): 0.3 | MTT assay result, run 6 (MiaPaCa-2 cells; 48 hours): 0.262 | MTT assay result, run 7 (MiaPaCa-2 cells; 48 hours): 0.266 | rel amt (relative value set to the control) (MiaPaCa-2 cells; 120 hours (5 days)): 80 | MTT assay result, av-blank (MiaPaCa-2 cells; 120 hours (5 days)): 1.443 | MTT assay result, av (MiaPaCa-2 cells; 120 hours (5 days)): 1.495 | MTT assay result, run 1 (MiaPaCa-2 cells; 120 hours (5 days)): 1.36 | MTT assay result, run 2 (MiaPaCa-2 cells; 120 hours (5 days)): 1.346 | MTT assay result, run 3 (MiaPaCa-2 cells; 120 hours (5 days)): 1.488 | MTT assay result, run 4 (MiaPaCa-2 cells; 120 hours (5 days)): 1.609 | MTT assay result, run 5 (MiaPaCa-2 cells; 120 hours (5 days)): 1.84 | MTT assay result, run 6 (MiaPaCa-2 cells; 120 hours (5 days)): 1.412 | MTT assay result, run 7 (MiaPaCa-2 cells; 120 hours (5 days)): 1.408
